Assay results from patent US8258134B2, “Pyridazinone glucokinase activators” (Hoffmann-La Roche Inc., priority 2008, dated 2012).

Experiments:
[1] = biological target: T1, Recombinant human liver GK1 (GST-GK) (Homo sapiens, UniProt P35557); experiment: Glucokinase in vitro assay (G6PDH-coupled NADH generation, OD340); assay type: biochemical; conditions: 5 mM D-glucose, 30° C., pH 7.1, 10% DMSO
T1 construct: made in house; host or cells: E. coli
T1 sequence (P35557 1-466 isoform P35557-2): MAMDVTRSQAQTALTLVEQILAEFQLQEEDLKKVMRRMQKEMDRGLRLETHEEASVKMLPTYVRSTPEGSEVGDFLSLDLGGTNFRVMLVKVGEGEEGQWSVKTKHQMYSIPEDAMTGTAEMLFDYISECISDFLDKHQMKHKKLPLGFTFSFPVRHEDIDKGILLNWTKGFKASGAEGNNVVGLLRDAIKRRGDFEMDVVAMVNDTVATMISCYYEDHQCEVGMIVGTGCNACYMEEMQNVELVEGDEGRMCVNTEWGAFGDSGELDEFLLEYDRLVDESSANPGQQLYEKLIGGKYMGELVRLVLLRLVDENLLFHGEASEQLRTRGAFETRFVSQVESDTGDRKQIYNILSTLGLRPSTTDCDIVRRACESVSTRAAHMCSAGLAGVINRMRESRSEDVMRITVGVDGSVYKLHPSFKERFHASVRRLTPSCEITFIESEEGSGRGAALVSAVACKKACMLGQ
In short: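 Activation readout is SC1.5, the activator concentration raising GK rate (OD340/min) 50% above 10% DMSO controls. The coupled reaction used GST-GK1 from E. coli, 5 mM glucose, 1 mM ATP, 1.8 mM NAD and 25 mM Hepes pH 7.1 at 30° C. Enzyme was added after a 10 min compound pre-incubation.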

Lean C57BL/6J mice = experiment: Glucokinase activator in vivo screen, blood glucose in lean mice; conditions: Mus musculus, vs control at 4 hours post 50 mg/kg oral dose, two hour fast, read-out: % glucose lowering @ 4 H
Description: Glucokinase Activator in vivo Screen Protocol in Lean and Diet Induced Obese Mice: Lean or Diet-induced Obese (DIO) C57BL/6J mice were orally dosed via gavage with Glucokinase (GK) activator following a two hour fasting period. Blood glucose determinations were made at various (e.g. 0, 1, 2, 4 and 8 hours post-oral gavage) times during the study.
C57Bl/6J mice were obtained from Jackson Laboratory (Bar Harbor, Me.) and were maintained in a light-dark cycle with lights on from 0600-1800 hr. For studies in lean mice, the mice were received at age ten weeks and given ad libitum access to control diet (LabDiet 5001 chow, PMI Nutrition, Brentwood, Mo.), and were at least age 11 weeks at the time of study. For studies in the DIO model, the mice were received at age five weeks and given ad libitum access to Bio-Serv F3282 High Fat Diet (Frenchtown, N.J.), and were at least age 16 weeks at the time of study. The experiments were conducted during the light phase of the light-dark cycle. Mice (n=6) are weighed and fasted for a two hour period prior to oral treatment. GK activators are formulated in Gelucire vehicle (Ethanol:Gelucire44/14:PEG400q.s. 4:66:30 v/w/v. For studies in lean mice, the mice were dosed orally with 5.0 μL per gram of body weight (i.e. 5 ml/kg×10.0 mg/ml formulation to equal a 50 mg/kg dose). For studies in DIO mice, the mice were dosed orally with 5.0 μL per gram of body weight (i.e. 5.0 ml/kg×5 mg/ml formulation to equal a 25 mg/kg dose). Immediately prior to dosing, a pre-dose (time zero) blood glucose reading was acquired by snipping off a small portion of the animal's tail and collecting 15 μL blood into a heparinized capillary tube for analysis. Following GK activator administration, additional blood glucose readings were taken at various time points post dose from the same tail wound. Results were interpreted by comparing the mean blood glucose values of vehicle treated mice with GK activator treated mice over the study period.
The Table below provides data for % glucose lowering of a representative number of compounds of the present invention vs control at 4 hours post 50 mg/kg dose in lean C57BL/6J mice: […]

Row | SC1.5 average (concentration of activator that produced a 50% increase in the activity of GK) [1] | Structure (SMILES) | change in vivo at 50 mg/kg (Lean C57BL/6J mice)
1 | 1.323 µM | CC(C)(O)Cn1ccc(NC(=O)C(CC2CCCC2)n2ncc(OC3CCCC3)cc2=O)n1 (stereo not shown) [Example 8, 3-Cyclopentyl-2-(4-cyclopentyloxy-6-oxo-6H-pyridazin-1-yl)-N-[1-(2-hydroxy-2-methyl-propyl)-1H-pyrazol-3-yl]-propionamide] | -5.6%
2 | 0.206 µM | CC(C)(O)Cn1ccc(NC(=O)C(CC2CCCC2)n2ncc(Oc3ccccc3C(F)(F)F)cc2=O)n1 (stereo not shown) [Example 11, 3-Cyclopentyl-N-[1-(2-hydroxy-2-methyl-propyl)-1H-pyrazol-3-yl]-2-[6-oxo-4-(2-trifluoromethyl-phenoxy)-6H-pyridazin-1-yl]-propionamide] | -48.9%
3 | 0.113 µM | CC(C)(O)Cn1ccc(NC(=O)C(CC2CCCC2)n2ncc(Oc3cccc4c3CCCC4)cc2=O)n1 (stereo not shown) [Example 17, 3-Cyclopentyl-N-[1-(2-hydroxy-2-methyl-propyl)-1H-pyrazol-3-yl]-2-[6-oxo-4-(5,6,7,8-tetrahydro-naphthalen-1-yloxy)-6H-pyridazin-1-yl]-propionamide] | -35.2%
4 | 0.14 µM | CC(C)(O)Cn1ccc(NC(=O)C(CC2CCCC2)n2ncc(Oc3ccccc3F)cc2=O)n1 (stereo not shown) [Example 19, 3-Cyclopentyl-2-[4-(2-fluoro-phenoxy)-6-oxo-6H-pyridazin-1-yl]-N-[1-(2-hydroxy-2-methyl-propyl)-1H-pyrazol-3-yl]-propionamide] | -49.2%
5 | 0.117 µM | COc1ccccc1Oc1cnn(C(CC2CCCC2)C(=O)Nc2ccn(CC(C)(C)O)n2)c(=O)c1 (stereo not shown) [Example 12, 3-Cyclopentyl-N-[1-(2-hydroxy-2-methyl-propyl)-1H-pyrazol-3-yl]-2-[4-(2-methoxy-phenoxy)-6-oxo-6H-pyridazin-1-yl]-propionamide] | -49.3%
